Measurements from US10030256B2, “Method for producing lysophosphatidylethanolamine 18:1 from microorganism of Pseudomonas sp” (KOREA RESEARCH INSTITUTE OF BIOSCIENCE AND BIOTECHNOLOGY, priority 2015, dated 2018).

Experiments:
virulent Pst = assay: Acquirement of local immunity against virulent Pst by treatment with only LPE; type: in vivo, Arabidopsis thaliana; settings: for bacterial growth of virulent Pst: compared to mock treatment
Protocol: (§1) Pseudomonas syringae pv. tomato DC3000 (hereinbelow, Pst) and Pst-avrRpm1, which is avrRpm1-containing bacterial strain with no virulency, were obtained from Y. J. Kim (Korea University, South Korea). Pst-avrRpt2, which is avrRpt2-containing bacterial strain with no virulency, was obtained from J. M. Park (KRIBB, South Korea) and Pst-avrRps4, which is avrRps4-containing bacterial strain with no virulency, was obtained from R. Innes (Indiana University, USA). The bacterial strains were cultured and treated according to the method of Katagiri, et al. (Arabidopsis Book, 2002, 1:e0039).
(§2) Every phospholipid was purchased from Avanti Polar Lipids Inc. (USA), and free fatty acids (16:0, 18:0 and 18:1) were purchased from Sigma Co. (USA). The solvent was dried under nitrogen gas stream, and the lipids were suspended therein according to ultrasonication so as to have final concentration of 100 nmol ml^−1 in 0.018% silwet L-77 (or 200 nmol ml^−1 in H2O).
(§3) Based on the analysis of pla2α mutant plants compared to wild type, we hypothesized that the defect in immune responses of the pla2α mutant may be due to the failure to generate the lipid products that mediate downstream immune responses. To test this hypothesis, we supplemented pla2α mutant with LPE18:1 1.5 h after inoculation of Pst-avrRpm1. […] Very importantly, LPE by itself renders local immunity in the absence of avirulent Pst (FIGS. 3C-3E). […] In addition, disease symptoms were much reduced in LPE-sprayed leaves compared to mock-treated ones (FIG. 3E).

[1] = test system: salicylic acid, ethylene, and jasmonic acid; assay: Quantification of salicylic acid, ethylene and jasmonic acid in Arabidopsis leaf; type: in vivo, Arabidopsis thaliana
Excerpt: According to the method described before (Bowling et al., 1994, Plant Cell 6:1845-1857; Heck et al., 2003, Plant J. 36:342-352), salicylic acid, ethylene, and jasmonic acid were quantified from 0.5 g of a Arabidopsis leaf sample which has been sprayed with Pst-avrRpm1 suspension (1×10^8 CFU ml^−1 in 0.018% Silwet L-77) or LPE (100 nmol ml^−1 in 0.018% Silwet L-77 or 200 nmol ml^−1 in H2O).

Pst = assay: In vitro antibacterial activity against Pst; type: cell-based, Pseudomonas syringae pv. tomato DC3000
Protocol: In order to determine the antibacterial activity of PLA2α, 3 μg of recombinant PLA2α in free and mature form, which has been prepared according to the method by Ryu et al. (Biochem Biophys Acta. 2005, 1736:144-151), was added to 100 μl of a solution (Tris-HCl (50 mM, pH 8.0), 10 mM calcium chloride (CaCl2)) in which virulent Pst (5×10^5 CFU ml^1) is suspended. The bacteria sample was cultured in a weak shaking state at 28° C. for 6 hours. Thereafter, only the survived bacteria were titrated. As a mock control group, a suspension in which the bacteria are suspended in a solution having no PLA2α was used.

[2] = suppression of aging; cited from earlier work
NPR1 = NPR1 transition in transgenic plant carrying 35S::NPR1-eGFP; type: in vivo, Arabidopsis thaliana; settings: 35S::NPR1-eGFP transgenic plants, observed 6 hours after spraying
Protocol: NPR1 transition was determined by spraying LPE (100 nmol ml^−1 in 0.018% Silwet L-77), salicylic acid (0.3 mM in 0.018% Silwet L-77), or mock solution (0.018% Silwet L-77) to a transgenic plant carrying 35S::NPR1-eGFP, and observing, 6 hours later, the plant leaf with a laser scanning confocal microscope (Zeiss, Germany).

[3] = test system: PR1, PDF1.2, VSP1, JMT, ICS1, PAL1, ACS, LOX2; assay: Gene expression analysis (RT-PCR / real-time qPCR) in Arabidopsis leaves after treatment; type: in vivo, Arabidopsis thaliana
Protocol: Total RNA was extracted by using RNA isolator (Gibco, USA) from a sample which has been frozen with liquid nitrogen (i.e., 2 leaves per sample). Reverse transcription polymerase chain reaction (RT-PCR) and real-time quantitative polymerase chain reaction (real-time qPCR) were carried out by using gene-specific primers. For the analysis of a real-time quantitative polymerase chain reaction, Applied Biosystems 7900 Real-Time PCR SYSTEM™ was used. 2×SYBR® Green qPCR master mix was used for PCT amplification. The analyzed data were normalized first against the amount of ACTIN1 gene, and the fold increase of gene expression according to treatment was determined in comparison with a mock or non-treatment plant (1.0 fold). Reference gene as an alternative (AT1G13320) was obtained from the previous study (Hong et al., 2010, Plant Cell Physiol. 51:1694-1706). The gene-specific primers that are used in the present invention are as described in Table 1 and Table 2 below.
as §2
(§4) The mature form of the recombinant PLA2α protein was produced in Escherichia coli which is fused with Dsbc protein. According to the method described before (Ryu et al., 2005, Biochem Biophys Acta. 1736:144-151), it was purified by affinity chromatography. The protein mixture in which PLA2α and Dsbc are separated from each other or Dsbc:PLA2α fusion protein (10 μgml^−1) was treated on the leaf of pla2α mutant by syringe infiltration, each in an amount of 0.5 μg. The enzyme activity of PLA2α was determined by in vitro analysis using substrate PE for a reaction mixture containing 10 mM Ca^2+ and 0.05% Triton X-100 in 50 mM Tris-HCl (pH 8.5). The mock-treated plant was infiltrated with a buffer (50 mM Tris-HCl, pH 8.0) or Dsbc protein. For inactivation of the PLA2α activity, recombinant PLA2α was pre-treated for 30 minutes at 30° C. with 2 μM manoalide as an irreversible inhibitor.

Pst-avrRpm1 = assay: Recovery of local immune response in pla2α mutant plant by exogenous lipid after Pst-avrRpm1 inoculation; type: in vivo, Arabidopsis thaliana; settings: for complementation of impaired local immunity of pla2α mutant plants (bacterial growth assay): FIG. 3B
Protocol: Arabidopsis plant was cultivated at temperature of 22° C. and relative humidity of 60% with conditions including 16 hours of light period and 120 μmoles m^−2s^−1 of photon flux density. Because the plant defense response is age-dependent, fully mature leaves of the 4 week old plant were used for various analyses. Arabidopsis (Arabidopsis thaliana) mutants including pla2α, pla2α-II, sid2, npr1-5, rps2 and ein2 (Salk_099415, CS857021, Salk_042603, CS3724, Salk_087581, CS3071 and CS8072, respectively) were purchased from Arabidopsis Biological Resource Center, USA. Arabidopsis mutants eds1 and pad4-5 were obtained from S. A. Whitham (Iowa State University, USA) and J. E. Parker (Max Planck Institute for Plant Breeding Research, Germany), respectively. The transgenic line expressing NPR1-eGFP and NahG were obtained from X. Dong (Duke University, USA) and O. M. Park (Korea University, South Korea), respectively.
as §1, §2, §3

PLA2α = target: T1, PLA2α (Arabidopsis thaliana, UniProt Q8S8N6); assay: In vitro analysis of PLA2 activity (inactivation by manoalide); type: biochemical; settings: 2 μM manoalide, 30 minutes at 30° C.
T1 construct: The mature form of the recombinant PLA2α protein was produced in Escherichia coli which is fused with Dsbc protein; DsbC; made in house; host or cells: Escherichia coli
T1 sequence (Q8S8N6 21-148): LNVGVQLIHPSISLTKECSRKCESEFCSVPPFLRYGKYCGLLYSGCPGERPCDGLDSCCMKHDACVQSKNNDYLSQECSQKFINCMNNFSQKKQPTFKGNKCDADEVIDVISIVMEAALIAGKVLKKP
Protocol: as §4

In the case of “lysophosphatidylethanolamine 18:1 [LPE18:1]”, the disease symptoms (virulent Pst; LPE-sprayed leaves compared to mock-treated) is reported as “much reduced”, the “bacterial growth of virulent Pst” value (virulent Pst; pla2α mutant plants) is reported as “suppressed the bacterial growth” and the “bacterial growth of virulent Pst” value (virulent Pst; wild type plants) is reported as “suppressed the bacterial growth”. For the same compound, the JA levels ([1]; Arabidopsis leaves) was “did not exhibit a significant increase”, the ethylene levels ([1]; Arabidopsis leaves) was “an increase in ethylene levels” and the “increase in SA levels” value ([1]; Arabidopsis leaves treated with LPE18:1) was 2.5 fold. For the same compound, the “direct effect on bacterial growth in in vitro assays” value (Pst) was “no direct effect on bacterial growth”, the “biological efficacy compared with LPE 16:0 or LPE 18:0” value [2] was “much higher biological efficacy” and the “NPR1 translocation from the cytoplasm to the nucleus” value (NPR1) was “activated NPR1 by inducing its translocation from the cytoplasm to the nucleus”. The ACS gene expression ([3]; Arabidopsis leaves) was “exhibited ACS gene expression”, the LOX2 gene expression ([3]; Arabidopsis leaves) was “did not exhibit a significant increase in LOX2 gene expression” and the PAL1 expression ([3]; Arabidopsis leaves) was “did not elevate PAL1 expression”. For the same compound, the ICS1 gene expression ([3]; Arabidopsis leaves, 6 h post-treatment) was “displayed ICS1 gene expression”, the “PR1 gene expression in the sid2 mutant plants” value ([3]; sid2 mutant) was “failed to induce PR1 gene expression” and the “expression of the PR genes PR1 and PDF1.2” value ([3]; wild type leaf, LPE vs mock, absence of avirulent Pst) was “induced the expression of the PR genes PR1 and PDF1.2”. For the same compound, the “recovery of phenotypic defect of pla2α mutant plant” value (Pst-avrRpm1; FIG. 3A) was “recovery of phenotypic defect”, the “complementation of impaired local immunity of pla2α mutant plants (bacterial growth assay)” value (Pst-avrRpm1) was “complemented by LPE” and the “ability of the pla2α mutant to induce local immune responses” value (Pst-avrRpm1; pla2α mutant supplemented 1.5 h after inoculation of Pst-avrRpm1) was “restored the ability of the pla2α mutant to induce local immune responses”.
In the case of O=C(O)c1ccccc1O [SA, salicylic acid, reference compound], the “NPR1 translocation from the cytoplasm to the nucleus” value (NPR1) is reported as “as did SA treatment”.
In the case of CC1=C(CC/C(C)=C/CCC2=CC[C@H](C3=CC(=O)O[C@H]3O)O[C@H]2O)C(C)(C)CCC1 [manoalide, reference compound], the “inactivation of the PLA2α activity” value (PLA2α) is reported as “Inactivation of the PLA2α activity caused by manoalide was confirmed” and the “PR1 gene expression by rPLA2α catalytically inactivated with manoalide” value ([3]; rPLA2α pre-treated with PLA2 inhibitor manoalide) is reported as “failed to induce PR1 gene expression”.
For “lysophosphatidylglycerol [LPG, reference compound]”, the “complementation of impaired local immunity of pla2α mutant plants (bacterial growth assay)” value (Pst-avrRpm1) was “only a little”.
